Marks after values point to notes of the source that are not given here.
Columns and labels:
[1] = system: four clinical isolates of MRSA; assay: aPDI with CFL irradiation, summary over MRSA isolates; type: cell-based, Staphylococcus aureus
Experimental: (§1) In all cases, we observed potent aPDI with bactericidal activities at 1-5 μM (Table 1). The consistent response to Ga-PpIX treatment is encouraging, as variable efficacy between strains is a known problem in antimicrobial photodynamic therapy (Nakonieczna, J. et al., Photodiagn. Photodyn. Ther. 2012, 9, 359-361). […] We note that PpIX is already approved as a photosensitizer for topical treatment of several skin diseases, but its utility is limited by poor photostability.
A 20-W compact fluorescent lightbulb (CFL; Sunlite SL20/BLB) housed in an ellipsoidal reflector dome was used for aPDI, at an emission wavelength at 406 nm and a mean power density of 12.4 mW/cm^2 (after applying a 408-nm shortpass filter). Antimicrobial assays were performed on planktonic bacteria at 10^7 cfu/mL with variable exposure times to CFL irradiation, followed by plating on agar and incubation at 37° C. In a typical experiment, bacterial suspensions were transferred into 96-well plates then treated with 100-μL aliquots of Ga-PpIX or PpIX solution, with final concentrations ranging from 320 to 0.31 μg/mL, followed immediately with CFL irradiation for 5 to 15 minutes. […] Bacterial counts were determined by the drop-plate method using TS-agar plates, and reported in colony-forming units per milliliter (cfu/mL).

CSHR-expressing bacteria = assay: Bacterial uptake of GaPpIX, time to saturation; type: cell-based
Experimental: Bacteria were cultured and assayed in iron-deficient media unless otherwise noted. A stock solution of Ga-PpIX (14.6 μM) was prepared by dispersing 5 mg in 1 mL of 10% DMSO in PBS for 10 minutes in an ultrasonic cleaning bath protected from light, followed by filtration and 10× dilution in PBS just prior to use. Bacterial suspensions (0.5 mL) were treated with freshly prepared solutions of PpIX derivatives for specified periods (5-15 min), then harvested by centrifugation at 5.2 g for 5 minutes, redispersed twice in 0.5 mL deionized water, and centrifuged a third time. A 10-μL aliquot of concentrated bacteria was deposited onto a glass slide and dried in air for 20 min, then imaged by fluorescence microscopy as described above. For details on fluorescence image processing and quantitative analysis, see Supporting Information.
Darkfield and fluorescent images were acquired in succession, with the former used to map regions of interest (ROIs) by tracing the outlines of bacteria (FIG. 8). Three images were acquired for each sample; in each case, the tracing map was overlaid onto the fluorescence image to calculate pixel intensities within each ROI, using the mean pixel intensity for quantitative analysis. […]

[2] = system: MRSA (USA200), clinical isolate NRS 383; assay: aPDI with CFL irradiation (406 nm), planktonic bacteria, drop-plate colony count; type: cell-based, Staphylococcus aureus; settings: for potency relative to dark toxicity (0 min exposure): 15 min CFL, 3-log reduction
Experimental: as §1
(§2) All bacterial strains were cultured at 37° C. in an aerobic atmosphere unless otherwise noted. […] Bacterial counts were estimated in units of cfu/mL by plating serial dilutions onto agar plates, followed by incubation for 16 hours at 37° C. Iron-challenged conditions were typically achieved by first growing the bacteria in standard (iron-replete) media (see Table 2), then harvesting and resuspending in media containing 3 mM 2,2′-bipyridine. Further details and variations on iron-deficient culture conditions are provided in Supporting Information.
(§3) A 20-W compact fluorescent lightbulb (CFL; Sunlite SL20/BLB) housed in an ellipsoidal reflector dome was used for aPDI, at an emission wavelength at 406 nm and a mean power density of 12.4 mW/cm^2 (after applying a 408-nm shortpass filter). Antimicrobial assays were performed on planktonic bacteria at 10^7 cfu/mL with variable exposure times to CFL irradiation, followed by plating on agar and incubation at 37° C. In a typical experiment, bacterial suspensions were transferred into 96-well plates then treated with 100-μL aliquots of Ga-PpIX or PpIX solution, with final concentrations ranging from 320 to 0.31 μg/mL, followed immediately with CFL irradiation for 5 to 15 minutes. The irradiated bacteria were plated onto agar in serial tenfold dilutions (10^7-10^1 cfu/mL); controls included one set of wells without photosensitizer, and one set of wells with photosensitizer but without 15 min irradiation, prior to plating (dark toxicity). Bacterial counts were determined by the drop-plate method using TS-agar plates, and reported in colony-forming units per milliliter (cfu/mL).
(§4) The irradiation source consisted of a 20-W compact fluorescent lightbulb (CFL; Sunlite SL20/BLB) housed in an ellipsoidal reflector dome. Emission spectra were measured with an Acton SpectraPro 2300i spectrometer (1200 gratings/inch), with major peaks at 406 and 438 nm and a minor peak at 548 nm (FIG. 10). Irradiance was measured with a handheld luminometer (Lux/FC HS1010A) positioned 4 cm from the CFL, yielding 91 lux or an average power density of 36.4 mW/cm^2; addition of a 425-nm or 408-nm shortpass filter yielded 31 lux or 12.4 mW/cm^2 corresponding with emission at 406 nm. The CFL produced only minor increases in temperature within the dome (28° C. after 15 min).

[3] = system: MRSA (USA800), clinical isolate NRS 387; assay: as above; type: cell-based, Staphylococcus aureus; settings: for potency relative to dark toxicity (0 min exposure): 15 min CFL, 3-log reduction
Experimental: as §1, §2, §3, §4

[4] = system: MRSA (USA500), clinical isolate NRS 385; assay: as above; type: cell-based, Staphylococcus aureus; settings: for potency relative to dark toxicity (0 min exposure): 15 min CFL, 3-log reduction
Experimental: as §1, §2, §3, §4

[5] = system: MRSA (USA700), clinical isolate NRS 386; assay: as above; type: cell-based, Staphylococcus aureus; settings: for potency relative to dark toxicity (0 min exposure): 15 min CFL, 3-log reduction
Experimental: as §1, §2, §3, §4

[6] = system: S. aureus and clinical isolates of MRSA; assay: aPDI with CFL irradiation, summary over strains; type: cell-based, Staphylococcus aureus; settings: 15 minutes of irradiation, compact fluorescence lightbulb (λmax 406 nm, 12.4 mW/cm^2)
Experimental: as §3

S. aureus = assay: aPDI with 405-nm LED bar, summary over strains; type: cell-based, Staphylococcus aureus; settings: 10 seconds, 405-nm light-emitting diode bar (99 mW/cm^2), fluence about 1 J/cm^2
Experimental: Antibacterial activity assay general protocol: Used LED light to test conditions. Bacteria were grown in TS broth, followed by 3 mM bipyridine in TS broth until log phase. Bacteria were then diluted with PBS, to OD 0.1 (˜10^) and then to ˜10^7 cfu/mL. 100 uL of bacteria were placed in 96 well plates with the appropriate GaPpIX concentration. 2× serial dilutions were then done to obtain other GaPpIX concentrations. Each concentration was done in triplicate. Bacteria were left incubating and irradiating for different amount of times at different light powers or left in the dark. 10× Serial dilutions were done and bacteria were plated for colony counting using the drop-plate technique. Colonies were counted after 24 hours. As reported herein, a 3-log reduction equals measurable antimicrobial action; a 6-log reduction equals total eradication.

[7] = Rish et al. 2007; cited from earlier work
[8] = 0 min (dark), no irradiation (dark toxicity)
[9] = 0 min (dark), no irradiation (dark toxicity), listed as Ga-
[10] = 0 min (dark), no irradiation (dark toxicity), listed as PpIX

Compound | Antimicrobial activity (minimum 3-log CFU reduction) [2, 8] [μM] | Eradication (6 log reduction) ([2]; 15 min CFL (11.2 J/cm^2)) [μM] | potency relative to dark toxicity (0 min exposure) [2] [x] | Eradication (6 log reduction) ([2]; No irradiation (dark toxicity)) [μM] | Antimicrobial activity (minimum 3-log CFU reduction) [3, 8] [μM] | Antimicrobial activity (minimum 3-log CFU reduction) ([3]; 15 min CFL (11.2 J/cm^2)) [μM] | Eradication (6 log reduction) ([3]; 15 min CFL (11.2 J/cm^2)) [μM] | potency relative to dark toxicity (0 min exposure) [3] [x] | Eradication (6 log reduction) ([3]; No irradiation (dark toxicity)) [μM] | Antimicrobial activity (minimum 3-log CFU reduction) [4, 8] [μM] | Antimicrobial activity (minimum 3-log CFU reduction) ([4]; 15 min CFL (11.2 J/cm^2)) [μM] | Eradication (6 log reduction) ([4]; 15 min CFL (11.2 J/cm^2)) [μM] | potency relative to dark toxicity (0 min exposure) [4] [x] | Eradication (6 log reduction) ([4]; No irradiation (dark toxicity)) [μM] | Antimicrobial activity (minimum 3-log CFU reduction) [5, 8] [μM] | Antimicrobial activity (minimum 3-log CFU reduction) ([5]; 15 min CFL (11.2 J/cm^2)) [μM] | Eradication (6 log reduction) ([5]; 15 min CFL (11.2 J/cm^2)) [μM] | potency relative to dark toxicity (0 min exposure) [5] [x] | Eradication (6 log reduction) ([5]; No irradiation (dark toxicity)) [μM] | other results
Ga(III)-protoporphyrin [Ga-PpIX (1)] | 36.3 | 2.3 | 32 | 73 | 73 | 1.1 | 2.3 | 64 | 146 | >146 | 4.6 | 36.3 | >32 | >146 | >146 | 4.6 | 18.3 | >32 | >146 | bactericidal activities (aPDI) [1]: 1 to 5 µM; time to saturation of uptake (CSHR-expressing bacteria): under 15 minutes; Antimicrobial activity (minimum 3-log CFU reduction) ([2]; 15 min CFL (11.2 J/cm^2), listed as Ga-): 1.1^c μM; Antimicrobial activity (minimum 3-log CFU reduction) ([2]; 15 min CFL (11.2 J/cm^2), listed as GaPpIX (1)): 1.1 μM; Antimicrobial activity (minimum 3-log CFU reduction) [4, 9]: >146^d μM; Antimicrobial activity (minimum 3-log CFU reduction) [5, 9]: >146^d μM; GaPpIX concentration for 3-log reduction by aPDI [6]: 0.5-4.5 μM; GaPpIX concentration showing aPDI efficacy (S. aureus): 0.06 to 0.12 µM; molar extinction coefficient, previous reports [7]: 250000 M⁻¹ cm⁻¹
C=CC1=C(C)c2cc3[nH]c(cc4nc(cc5[nH]c(cc1n2)c(C)c5CCC(=O)O)C(CCC(=O)O)=C4C)c(C)c3C=C [PpIX (2), PpIX, reference compound] | 36.3 | 4.6 | 32 | 146 | >146 | 9.1 | 18.3 | 16 | >146 | >146 | 18.3 | 36.3 | >8 | >146 | >146 | 36.3 | 73 | >4 | >146 | Antimicrobial activity (minimum 3-log CFU reduction) ([2]; 15 min CFL (11.2 J/cm^2)): 1.1 μM; Antimicrobial activity (minimum 3-log CFU reduction) ([2]; 15 min CFL (11.2 J/cm^2), listed as PpIX): 1.1^c μM; Antimicrobial activity (minimum 3-log CFU reduction) [3, 10]: 146 μM; Antimicrobial activity (minimum 3-log CFU reduction) [4, 10]: >146^d μM; Antimicrobial activity (minimum 3-log CFU reduction) [5, 10]: >146^d μM

From patent US10722582B2, “Targeted antimicrobial photodynamic therapy” (Purdue Research Foundation, priority 2018, dated 2020)
